Data published in patent publication US20220409692A1, “Systems Chemico-Pharmacology Drugs and Methods of Use” (The Medical College of Wisconsin, priority 2019, published 2022).
“And” between values parts separate entries of the source, which are not always exact repeats. Identical values can stand only once. Like-named read-outs stand apart in the source and are kept apart here. Peptide text beside a SMILES is read from it.

Experiments:
neonatal rat pups = assay type: in vivo; settings: for weight gain: P3-P10
Procedure: Data from lung sections and immunoblots from the samples were analyzed for statistical differences using GraphPad Prism version 8.4.3, for Windows (GraphPad Software, La Jolla, Calif.). Quantitative morphometric and cell count data are expressed as mean±SD scatter-plots adjacent to the representative images. Student t-test, or Mann-Whitney U test, was used for comparing two groups wherever appropriate. One-way analysis of variance with post-hoc Student-Newman-Keuls test was used when more than two groups of data were analyzed. Significant differences between groups were determined by either unpaired student's t-test or Mann-Whitney U test, depending on the distribution. Weight gain and survival data were analyzed using MedCalc Statistical Software version 15.2.1 (MedCalc Software bvba, Ostend, Belgium; http://www.medcalc.org). Kaplan-Meier survival curves were plotted using Kaplan-Meier tables constructed in GraphPad Prism. A p-value<0.05 was considered statistically significant.

MPO [1] = biological target: T1, MPO (Homo sapiens, UniProt P05164); experiment: KYC/AA(n) peptide inhibition of MPO HOCl production (TMB assay) at varied pH; assay type: biochemical
T1 sequence (P05164 49-745): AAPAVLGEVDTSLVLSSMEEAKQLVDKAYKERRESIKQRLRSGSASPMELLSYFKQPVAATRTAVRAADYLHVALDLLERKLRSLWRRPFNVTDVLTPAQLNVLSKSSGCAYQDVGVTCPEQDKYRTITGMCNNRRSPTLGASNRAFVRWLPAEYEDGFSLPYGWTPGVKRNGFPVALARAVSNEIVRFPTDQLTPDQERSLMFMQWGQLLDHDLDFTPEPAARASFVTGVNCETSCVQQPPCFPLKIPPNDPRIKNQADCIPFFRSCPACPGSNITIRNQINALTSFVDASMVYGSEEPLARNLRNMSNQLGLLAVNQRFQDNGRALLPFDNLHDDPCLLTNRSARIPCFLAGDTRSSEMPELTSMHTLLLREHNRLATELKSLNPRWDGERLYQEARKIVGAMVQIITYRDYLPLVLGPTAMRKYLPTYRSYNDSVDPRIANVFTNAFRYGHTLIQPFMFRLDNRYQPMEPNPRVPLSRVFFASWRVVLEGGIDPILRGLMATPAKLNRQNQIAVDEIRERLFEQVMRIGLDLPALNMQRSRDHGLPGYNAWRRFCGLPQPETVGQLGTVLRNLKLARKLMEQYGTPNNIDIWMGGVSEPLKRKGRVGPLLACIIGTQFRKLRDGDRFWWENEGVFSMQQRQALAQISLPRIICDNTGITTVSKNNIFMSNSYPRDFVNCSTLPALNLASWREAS
Excerpt: Small peptides of generic formula AA(n) (where AA represents different amino acids, and n can be 2-5) are both substrates and inhibitors of MPO (alternatively, inhibitors of EPO). These peptides are […] at the active site of MPO, which subsequently decreases the production of toxic oxidants that includes but not restricted to hypochlorous acid. All MPO activities (i.e., hypochlorous acid production) described herein were quantified by the 3,3′,5,5′-tetramethylbenzidine (TMB) assay. […] The free radical itself may act as an activated species, and is stable enough to react with proximal proteins, peptides, metabolites or small molecules to effect further change. The free radical is not limited to a single target, but may effect change multiple independent targets. In a non-limiting example, the free radical goes on to form a hetero- or homo dimer via an oxidized —S—S— disulfide (or di-Selenium) linkage. Finally, the more interactions between the peptide and active site of MPO that occurs the lower numerical IC50 value of the peptide inhibitor.
KYZ is […] in the presence of MPO, which subsequently decreases the production of hypochlorous acid. All MPO activities (i.e., hypochlorous acid production) were quantified by the 3,3′,5,5′-tetramethylbenzidine (TMB) assay. The tripeptide KXZ, requires amino acid #1 (AA1, K) to be a native amino acid or an artificial amino acid (aa) with a basic side-chain such as an amine functional group (e.g., Lysine (K)). Amino acid #2 (AA2, X) is a native or artificial amino acid that may contain a polar, non-polar, or aromatic amino acid.

MPO [2] = biological target: T1, MPO; experiment: MPO oxidation of KYC to thiyl radical, ESR with DMPO; assay type: biochemical; settings: MPO 120 nM, H2O2 50 μM, KYC 30 μM
Procedure: FIG. 30. MPO Oxidizes KYC to a KYC Thiyl Radical That Thiylates HMGB1. (A) ESR spectrum of KYC thiyl S°-DMPO generated by an MPO reaction mixture containing MPO (120 nM), H2O2 (50 μM) and KYC (30 μM). (B) Streptavidin-affinity blot of KYC thiylated HMGB1 and MPO in a split sample, one half treated neat and other half treated with DTT (100 mM) to reduce disulfide bonds.
This spectrum is similar to the spectrum of DMPO-S◯-YC generated when the dipeptide YC was added to an MPO reaction mixture containing DMPO [34].

control mice = experiment: Increasing single IP doses of KYC in control mice; assay type: in vivo, mouse; settings: unpublished, personal observations
[3] = normoxic pups, KYC vs untreated

## CC(=O)N[C@@H](CCCCN)C(=O)N[C@@H](Cc1ccc(O)cc1)C(=O)N[C@@H](CS)C(N)=O [KYC, N-acetyl lysyltyrosylcysteine amide] (Ac-Lys-Tyr-Cys-NH2)
Neonatal rat pups; hyperoxic (>90% O2) neonatal rat pups, KYC 5 mg/kg twice per day i.p., PBS group 82.8%
  survival rate at P10: 97.3% and ~98%
Neonatal rat pups; hyperoxic pups, KYC vs PBS
  survival to P10 (survival analysis): higher probability of surviving to P10
  weight gain: time-dependent changes in weight gain were not significantly different
Neonatal rat pups; [3]
  survival to P10: no significant differences in survival
  weight gain: gained more weight than untreated normoxic pups
MPO [1]; pH values of 6.5, 7.4 and 8.0
  IC50 values compared with KLC: superior
MPO [1]; varied pH
  IC50 values, inhibition of MPO HOCl production: changing of pH has limited effect on the IC50 values
MPO [2]
  ESR spectrum of MPO reaction mixture with DMPO: four-line ESR spectrum corresponding to DMPO-SO-KYC
Control mice
  single dose at which observable adverse effects were induced: 800 mg/kg
